Measured values as given in patent US20110039762A1, “TARGETED ANTIMICROBIAL MOIETIES” (C3 JIAN, INC., priority 2009, published 2011).
“Also recorded” adds a separate entry of the source. Bridge positions count the residues as written; N and C are the ends. Square brackets hold non-standard residues; d marks the D form. Ends that are not written are not given here. dOrn = NCCC[C@@H](N)C(=O)O; Orn = NCCC[C@H](N)C(=O)O

How the values were obtained:
S. pneumoniae = assay: Kill or inhibit growth/proliferation; morphology, biofilm and growth disruption (Tables 5, 6); type: cell-based, Streptococcus pneumoniae; parameters: key: A: Peptide aggregates; B: Less hyphal formation; Clumps; Diffuse clumps and small polyps; F: Diffuse growth; H: Thin; I: Growth inhibition; Microcolony formation; Rippled; Small polyps; Thick; W: Halo formation on top, microlonies on bottom; note: test concentration or dose not given here
microorganisms = assay: Peptides having multiple activities (targeting/binding, antimicrobial, growth or phenotype altering)
Text: In certain embodiments, peptides described herein can have multiple activities. Thus for example, a peptide can have both binding/targeting activity and antimicrobial activity. Such peptides can be used, e.g., in a chimeric construct, for any or all of these properties. Thus, for example, a peptide designated “B” in Table 8 can be used as a targeting peptide. If it is also designated G or M it can also be used for antimicrobial activity.

[1] = system: microorganisms (e.g., bacteria, yeasts, fungi); assay: Targeting peptide binding to target microorganisms (Table 3); conditions: preferably 1x PBS; for Target(s) (microorganisms bound by the targeting peptide): peptide binding in aqueous buffers varied by peptide solubility; for Target(s): microorganism the targeting peptide binds, binding in aqueous buffers varied by peptide solubility

PF-220 (VDPADDGTRHIRPEDGDPIEIDE; Peptide with targeting and/or antimicrobial activity)
Organism, effect (S. pneumoniae): S. pneumoniae (H)

PF-415 (MIDVTIGQKSKTGAFNASYSICFSGENFSF; Peptide with targeting and/or antimicrobial activity)
Organism, effect (S. pneumoniae): S. pneumoniae (D)

PF-419 (VVTGKVGSLPQIK; Peptide with targeting and/or antimicrobial activity)
Organism, effect (S. pneumoniae): S. pneumoniae (H)

PF-449 (MPTTKSKQKGWTNTKKASNTQ; Peptide with targeting and/or antimicrobial activity)
Organism, effect (S. pneumoniae): S. pneumoniae (H)

PF-455 (MARNDDDIKKIKGTLGQSPEVYGERKLPYT; Peptide with targeting and/or antimicrobial activity)
Organism, effect (S. pneumoniae): S. pneumoniae (A)

PF-465: peptide having multiple activities (chain 1 KPVGKALEEIADGKIEPVVPKEYLG; chain 2 KPVGKALEEIADGKIEPVVPKEYLG; Peptide with targeting and/or antimicrobial activity)
Activities (microorganisms): G B | Organism, effect (S. pneumoniae): S. pneumoniae (H)

PF-468 (EDNKDKKDKKDK; Peptide with targeting and/or antimicrobial activity)
Organism, effect (S. pneumoniae): S. pneumoniae (H)

PF-479: peptide having multiple activities (chain 1 AYILKRREEKNK; chain 2 AYILKRREEKNK; Peptide with targeting and/or antimicrobial activity)
Activities (microorganisms): G B | Organism, effect (S. pneumoniae): S. pneumoniae (C)

PF-482: peptide having multiple activities (chain 1 LVGYVRTSGTVRSYKIN; chain 2 LVGYVRTSGTVRSYKIN; Peptide with targeting and/or antimicrobial activity)
Activities (microorganisms): G B | Organism, effect (S. pneumoniae): S. pneumoniae (S)

PF-485 (KNSMSRSIALID; Peptide with targeting and/or antimicrobial activity)
Organism, effect (S. pneumoniae): S. pneumoniae (A)

PF-644 (chain 1 TSGLIIGENGLNGL; chain 2 TSGLIIGENGLNGL; Peptide with targeting and/or antimicrobial activity)
Target(s) (microorganisms bound by the targeting peptide) [1]: Mycobacteria spp | Organism, effect (S. pneumoniae): S. pneumoniae (H)

PF-651 (chain 1 PRWPTGAGRHR; chain 2 PRWPTGAGRHR; Peptide with targeting and/or antimicrobial activity)
Target(s) (microorganisms bound by the targeting peptide) [1]: Mycobacteria spp | Organism, effect (morphology, biofilm and growth disruption) (S. pneumoniae): S. pneumoniae (H)

PF-652 (chain 1 FLAPARPDLQAQRQALAQ; chain 2 FLAPARPDLQAQRQALAQ; Peptide with targeting and/or antimicrobial activity)
Target(s) (microorganisms bound by the targeting peptide) [1]: Mycobacteria spp | Organism, effect (morphology, biofilm and growth disruption) (S. pneumoniae): S. pneumoniae (A)

PF-653 (chain 1 QSVHPLPAETPVADVI; chain 2 QSVHPLPAETPVADVI; Peptide with targeting and/or antimicrobial activity)
Target(s) (microorganisms bound by the targeting peptide) [1]: Mycobacteria spp | Organism, effect (morphology, biofilm and growth disruption) (S. pneumoniae): S. pneumoniae (H)

PF-660 (chain 1 TDPQATAAPRRRTSPR; chain 2 TDPQATAAPRRRTSPR; Peptide with targeting and/or antimicrobial activity)
Target(s) (microorganisms bound by the targeting peptide) [1]: Mycobacteria spp | Organism, effect (morphology, biofilm and growth disruption) (S. pneumoniae): S. pneumoniae (H)

PF-662 (chain 1 GKQSRAHGPVASRREFRRKSG; chain 2 GKQSRAHGPVASRREFRRKSG; Peptide with targeting and/or antimicrobial activity)
Target(s) (microorganisms bound by the targeting peptide) [1]: Mycobacteria spp | Organism, effect (morphology, biofilm and growth disruption) (S. pneumoniae): S. pneumoniae (A)

PF-663 (chain 1 ATLIPRKA; chain 2 ATLIPRKA; Peptide with targeting and/or antimicrobial activity)
Target(s) (microorganisms bound by the targeting peptide) [1]: Mycobacteria spp | Organism, effect (morphology, biofilm and growth disruption) (S. pneumoniae): S. pneumoniae (A)

PF-665 (chain 1 VLRVATAVGEVPTGL; chain 2 VLRVATAVGEVPTGL; Peptide with targeting and/or antimicrobial activity)
Target(s) (microorganisms bound by the targeting peptide) [1]: Mycobacteria spp | Organism, effect (morphology, biofilm and growth disruption) (S. pneumoniae): S. pneumoniae (H)

PF-666 (chain 1 PNRRSRPR; chain 2 PNRRSRPR; Peptide with targeting and/or antimicrobial activity)
Target(s) (microorganisms bound by the targeting peptide) [1]: Mycobacteria spp | Organism, effect (morphology, biofilm and growth disruption) (S. pneumoniae): S. pneumoniae (A)

PF-682 (chain 1 RRGKSEQGLSRR; chain 2 RRGKSEQGLSRR; Peptide with targeting and/or antimicrobial activity)
Target(s) (microorganisms bound by the targeting peptide) [1]: Mycobacteria spp | Organism, effect (morphology, biofilm and growth disruption) (S. pneumoniae): S. pneumoniae (A)

PF-687 (chain 1 AKRVLSLAVAPHRRQPVQGT; chain 2 AKRVLSLAVAPHRRQPVQGT; Peptide with targeting and/or antimicrobial activity)
Target(s) (microorganisms bound by the targeting peptide) [1]: Mycobacteria spp | Organism, effect (morphology, biofilm and growth disruption) (S. pneumoniae): S. pneumoniae (A)

PF-688 (chain 1 ARNHAVIPAG; chain 2 ARNHAVIPAG; Peptide with targeting and/or antimicrobial activity)
Target(s) (microorganisms bound by the targeting peptide) [1]: Mycobacteria spp | Organism, effect (morphology, biofilm and growth disruption) (S. pneumoniae): S. pneumoniae (A)

PF-691 (chain 1 HRTVEFGVLGTYLVSGGSL; chain 2 HRTVEFGVLGTYLVSGGSL; Peptide with targeting and/or antimicrobial activity)
Target(s) (microorganisms bound by the targeting peptide) [1]: Mycobacteria spp | Organism, effect (morphology, biofilm and growth disruption) (S. pneumoniae): S. pneumoniae (R)

PF-693 (chain 1 PDPAR; chain 2 PDPAR; Peptide with targeting and/or antimicrobial activity)
Target(s) (microorganisms bound by the targeting peptide) [1]: Mycobacteria spp | Organism, effect (morphology, biofilm and growth disruption) (S. pneumoniae): S. pneumoniae (A)

PF-696 (chain 1 IRSGISAAYARPLR; chain 2 IRSGISAAYARPLR; Peptide with targeting and/or antimicrobial activity)
Target(s) (microorganisms bound by the targeting peptide) [1]: Mycobacteria spp | Organism, effect (morphology, biofilm and growth disruption) (S. pneumoniae): S. pneumoniae (H)

PF-699 (chain 1 GRAGVKCRRPTGR; chain 2 GRAGVKCRRPTGR; Peptide with targeting and/or antimicrobial activity)
Target(s) (microorganisms bound by the targeting peptide) [1]: Mycobacteria spp | Organism, effect (morphology, biofilm and growth disruption) (S. pneumoniae): S. pneumoniae (A)

PF-700 (chain 1 LNWPFTGR; chain 2 LNWPFTGR; Peptide with targeting and/or antimicrobial activity)
Target(s) (microorganisms bound by the targeting peptide) [1]: Mycobacteria spp | Organism, effect (morphology, biofilm and growth disruption) (S. pneumoniae): S. pneumoniae (C)

PF-702 (chain 1 LSGRLAGRR; chain 2 LSGRLAGRR; Peptide with targeting and/or antimicrobial activity)
Target(s) (microorganisms bound by the targeting peptide) [1]: Mycobacteria spp | Organism, effect (morphology, biofilm and growth disruption) (S. pneumoniae): S. pneumoniae (H)

PF-704 (chain 1 APAARAAL; chain 2 APAARAAL; Peptide with targeting and/or antimicrobial activity)
Target(s) (microorganisms bound by the targeting peptide) [1]: Mycobacteria spp | Organism, effect (morphology, biofilm and growth disruption) (S. pneumoniae): S. pneumoniae (C)

PF-S024 (SKRGRKRKDRRKKKANHGKRPNS; Peptide with targeting and/or antimicrobial activity)
Target(s) [1]: Corynebacteria

PF-S026 (TELKYNGEEYLLLTQRDILAVIEK; Peptide with targeting and/or antimicrobial activity)
Target(s) (microorganisms bound by the targeting peptide) [1]: S. epidermidis and MRSA and C. jeikeium

PF-S029 (TSDTQSQSPWLFDNADIVNIYPVQLMHSSDND; Peptide with targeting and/or antimicrobial activity)
Target(s) (microorganisms bound by the targeting peptide) [1]: M. luteus; also recorded: P. mirabilis; also recorded: E. coli; also recorded: C. albicans; also recorded: C. jeikeium; also recorded: C. jejuni

Py Pf 12 ([dS]KG[Orn][dS]SGK[dOrn]ES; lactam 8-C; not fully specified)
Target(s) [1]: P. fluorescens

TT-305 (ARNALNMRDVPVDAAIIGIIDGMDEE; Peptide with targeting and/or antimicrobial activity)
Target(s) [1]: F. nucleatum

TT-306 (KILNEAEGKLLKVIEKNGEIDIEEI; Peptide with targeting and/or antimicrobial activity)
Target(s) [1]: F. nucleatum

TT-307 (NGDKKAKEELDKWDEVIKELNIQF; Peptide with targeting and/or antimicrobial activity)
Target(s) [1]: F. nucleatum

TT-308 (GLVIIPNLIALIILFSQVRQQTKDYFSNPKLSSR; Peptide with targeting and/or antimicrobial activity)
Target(s) [1]: F. nucleatum

TT-309 (EPLPLTKYDKKDTEMKKVFKEILAGKVGYEKEEE; Peptide with targeting and/or antimicrobial activity)
Target(s) [1]: F. nucleatum

TT-310 (TKLKKNNKLLSAKKENTLHTKDK; Peptide with targeting and/or antimicrobial activity)
Target(s) [1]: F. nucleatum

TT-311 (AIFDAMHNL; Peptide with targeting and/or antimicrobial activity)
Target(s) [1]: S. mutans; also recorded: S. sobrinus
